From ChEMBL document CHEMBL1201862, “PubChem BioAssay data set” (2004)
Activity calls are given as the source filed them.

Tests used:
[1] = HEK-293T viability loss after treatment – luminescence, T-cell screen hits, cytotoxicity control for TCR NF-kB inhibitor project, dose response (AID 489026); type: functional, cell-based;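 also: cells exposed to compound about 14 hours before the viability readout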
[2] = target: T1, Microphthalmia-associated transcription factor (Homo sapiens, UniProt O75030); experiment: reducers of TRPM1 reporter luminescence, concentration series – cell-based, SK-MEL-5, cherry-picked, set 3, MITF inhibitor project, dose response (AID 493073); type: functional;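 also: SK-MEL-5 melanoma cells with luciferase driven by the MITF target TRPM1 promoter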
T1 sequence (O75030 whole entry): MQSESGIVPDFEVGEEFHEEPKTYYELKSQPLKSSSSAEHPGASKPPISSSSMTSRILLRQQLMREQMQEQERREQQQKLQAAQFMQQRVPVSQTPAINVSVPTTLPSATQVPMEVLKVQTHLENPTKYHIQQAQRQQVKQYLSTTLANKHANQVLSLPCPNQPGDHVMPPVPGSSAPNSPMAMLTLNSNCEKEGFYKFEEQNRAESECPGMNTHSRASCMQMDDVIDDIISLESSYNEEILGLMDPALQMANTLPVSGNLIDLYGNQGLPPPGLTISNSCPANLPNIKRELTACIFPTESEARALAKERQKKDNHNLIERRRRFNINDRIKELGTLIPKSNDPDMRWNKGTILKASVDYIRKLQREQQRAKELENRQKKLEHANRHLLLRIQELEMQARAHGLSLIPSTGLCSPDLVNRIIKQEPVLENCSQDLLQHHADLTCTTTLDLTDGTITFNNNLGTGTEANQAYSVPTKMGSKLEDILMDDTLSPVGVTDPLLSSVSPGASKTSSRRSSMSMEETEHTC

[3] = target: G-protein coupled receptor 35 (Homo sapiens, UniProt Q9HC97); experiment: inhibition of zaprinast-stimulated GPR35 beta-arrestin translocation – imaging, U2OS, beta-arrestin-GFP, zaprinast agonist, primary screen (AID 2058); type: functional;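 also: antagonist potency meaning inhibition of agonist-induced arrestin redistribution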
[4] = target: COUP transcription factor 2 (Homo sapiens, UniProt P24468); experiment: Luminescence-based cell-based high throughput dose response assay to identify inhibitors of COUP-TFII (NR2F2).; type: functional;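 also: HEK293 cells transiently cotransfected with COUP-TFII expression vector and reporter; luciferase reporter luminescence driven by COUP-TFII from the pX2-168 reporter plasmid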
[5] = system: A-375; experiment: proliferation inhibition in MITF-low A375 cells – cell-based, cherry-pick samples, set 2, counter-screen for MITF modulator project, dose response (AID 540335); type: functional; conditions: Homo sapiens
[6] = inhibition of ADAM10 peptide cleavage – biochemical, FRET peptide substrate, recombinant human ADAM10, selectivity assay for ADAM17 exosite inhibitor project, dose response (AID 743259);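 also: ADAM10 enzyme cleaving a FRET peptide substrate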
[7] = system: Streptococcus; experiment: GAS UMAA2166 growth inhibition – luminescence, BacTiterGlo, counter-screen for streptokinase expression inhibitor project, dose response (AID 1915); type: functional, organism-based;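 also: potency for reduction of bacterial viability or growth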
[8] = target: Disintegrin and metalloproteinase domain-containing protein 17 (Homo sapiens, UniProt P78536); experiment: exosite inhibitors of ADAM17, dose response, biochemical (AID 743260)
[9] = target: T2, Streptokinase A (Streptococcus pyogenes serotype M1, UniProt P10520); experiment: viability-normalized secreted streptokinase activity reduction – plasminogen activation absorbance, OD405, dose response (AID 1914); type: functional, Streptococcus pyogenes M1 GAS;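 also: secreted streptokinase activity via plasminogen activation per viability signal from cell pellet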
T2 sequence (P10520 whole entry): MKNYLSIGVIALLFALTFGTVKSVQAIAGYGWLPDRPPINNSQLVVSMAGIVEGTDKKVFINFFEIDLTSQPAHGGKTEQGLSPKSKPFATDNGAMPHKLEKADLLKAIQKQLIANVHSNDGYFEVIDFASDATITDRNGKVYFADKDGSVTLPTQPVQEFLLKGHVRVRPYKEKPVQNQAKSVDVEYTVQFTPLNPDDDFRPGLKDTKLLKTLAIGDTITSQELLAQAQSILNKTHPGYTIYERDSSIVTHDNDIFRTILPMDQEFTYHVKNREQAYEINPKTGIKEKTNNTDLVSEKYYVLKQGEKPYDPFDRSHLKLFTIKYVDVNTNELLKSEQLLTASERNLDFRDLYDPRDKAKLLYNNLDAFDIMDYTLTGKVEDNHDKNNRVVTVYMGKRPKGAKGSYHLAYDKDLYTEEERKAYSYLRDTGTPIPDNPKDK

[10] = viability loss in THP-1 monocytes – THP-1 cells, cytotoxicity control for Vif-APOBEC3G degradation inhibitor project, dose response (AID 1117359); type: functional; conditions: THP-1
[11] = system: Streptococcus sp. 'group A'; experiment: Streptococcus pyogenes SK(-)GAS viability under kanamycin – luminescence, BacTiterGlo, confirmation, counter-screen for streptokinase expression inhibitor project, dose response (AID 1900); type: functional, organism-based
[12] = alpha-synuclein stem-loop luciferase translation blockers – H4 neuroglioma cells, luminescence, confirmation (AID 1988); type: functional, cell-based
[13] = target: Cytochrome P450 2D6 (Homo sapiens, UniProt P10635);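 also: CYP2D6 member of a cytochrome P450 panel assay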
[14] = luciferase reporter signal suppression in cells – H4 neuroglioma cells, luminescence, dose response (AID 1990); type: functional, cell-based
[15] = Luminescence Cell-Based Dose Response HTS to Identify Inhibitors of 5'UTR Stem-Loop Driven Prion Protein mRNA Translation in H4 Neuroglioblastoma Cells. [Related pubchem assays: 1827 (Project Summary), 1813 (Primary HTS)]; type: functional
[16] = target: T3, Beta-lactamase (Pseudomonas aeruginosa, UniProt Q79MP6); experiment: […] counterscreen for selective VIM-2 inhibitors: dose response biochemical high throughput screening assay to identify inhibitors of IMP-1 metallo-beta-lactamase.
[17] = target: Beta-lactamase (Salmonella choleraesuis (strain SC-B67), UniProt Q5J463); experiment: Epi-absorbance-based counterscreen for selective VIM-2 inhibitors: dose response biochemical high throughput screening assay to identify inhibitors of TEM-1 serine-beta-lactamase.
[18] = target: T3, Beta-lactamase; experiment: inhibition of IMP-1 beta-lactamase activity – biochemical, epi-absorbance, selectivity assay for VIM-2 inhibitor project, dose response (AID 1920)
[19] = target: NAD-dependent protein deacylase sirtuin-5, mitochondrial (Homo sapiens, UniProt Q9NXA8); experiment: sirtuin-5 deacylation blockers, concentration series – biochemical, fluorescence imaging, cherry-pick, set 5, dose response (AID 720591);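 also: desuccinylation of succinyl peptide AMC substrate read as fluorescence after trypsin release; potency of inhibitors that lower fluorescence and may act on trypsin instead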
[20] = cells; type: functional, cell-based; conditions: HEK-CNG
[21] = target: Galanin receptor type 3 (Homo sapiens, UniProt O60755); experiment: Fluorescence-based cell-based primary high throughput dose response assay to identify antagonists of the Galanin Receptor 3 (GalR3).; type: functional
[22] = target: Protein-tyrosine kinase 2-beta (Homo sapiens, UniProt Q14289);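 also: potency of inhibitors of PYK2 kinase phosphorylation of poly-GT substrate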
[23] = HGIII-sPLA2 enzyme inhibition potency – biochemical, QFRET, IC50, dose response (AID 743457);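 also: green fluorescence rise as the enzyme cleaves BODIPY PC-A2 in liposomes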
[24] = target: T4, Trace amine-associated receptor 1 (Homo sapiens, UniProt Q96RJ0); experiment: Fluorescence-based cell-based high throughput dose response assay to identify agonists of the human trace amine associated receptor 1 (TAAR1).; type: functional
T4 sequence (Q96RJ0 whole entry): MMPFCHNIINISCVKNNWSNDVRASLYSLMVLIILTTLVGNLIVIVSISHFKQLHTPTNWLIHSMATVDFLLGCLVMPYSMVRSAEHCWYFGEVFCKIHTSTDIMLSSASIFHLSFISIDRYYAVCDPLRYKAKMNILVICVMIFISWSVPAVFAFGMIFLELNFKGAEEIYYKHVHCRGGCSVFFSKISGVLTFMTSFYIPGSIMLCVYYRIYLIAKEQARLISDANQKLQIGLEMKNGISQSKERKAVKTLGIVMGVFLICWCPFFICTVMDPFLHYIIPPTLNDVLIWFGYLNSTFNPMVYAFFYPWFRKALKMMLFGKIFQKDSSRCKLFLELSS

[25] = cells; type: functional, cell-based
[26] = cells; type: functional, cell-based; remark: listed apart in the source
[27] = target: T4, Trace amine-associated receptor 1; experiment: Counterscreen for agonists of the human trace amine associated receptor 1 (hTAAR1): Fluorescence-based cell-based high throughput dose response assay to identify hTAAR1 agonist that also desensitize TAAR1 receptor response.; type: functional
[28] = target: T5, Sentrin-specific protease 1 (Homo sapiens, UniProt Q9P0U3); experiment: SENP1 catalytic domain blockers, concentration series – biochemical, kinetic FRET, dose response (AID 651697); type: functional; conditions: read-out: IC50_Mean
T5 sequence (Q9P0U3 whole entry): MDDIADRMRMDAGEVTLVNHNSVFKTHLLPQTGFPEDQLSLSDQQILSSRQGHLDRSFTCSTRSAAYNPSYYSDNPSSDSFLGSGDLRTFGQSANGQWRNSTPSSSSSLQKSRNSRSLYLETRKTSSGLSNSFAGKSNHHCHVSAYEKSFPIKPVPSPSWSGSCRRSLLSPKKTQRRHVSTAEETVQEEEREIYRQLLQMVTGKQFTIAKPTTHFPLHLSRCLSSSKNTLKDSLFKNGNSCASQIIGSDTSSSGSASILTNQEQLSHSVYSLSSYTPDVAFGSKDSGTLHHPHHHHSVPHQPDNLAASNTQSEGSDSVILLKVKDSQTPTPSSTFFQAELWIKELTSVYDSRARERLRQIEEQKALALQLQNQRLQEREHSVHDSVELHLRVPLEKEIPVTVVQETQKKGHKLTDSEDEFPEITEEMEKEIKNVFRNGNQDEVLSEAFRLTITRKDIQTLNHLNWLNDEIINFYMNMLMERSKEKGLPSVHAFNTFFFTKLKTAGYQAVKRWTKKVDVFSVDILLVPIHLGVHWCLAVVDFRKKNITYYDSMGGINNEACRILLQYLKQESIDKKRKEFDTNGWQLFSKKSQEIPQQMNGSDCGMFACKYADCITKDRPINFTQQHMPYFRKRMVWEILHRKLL

[29] = target: T5, Sentrin-specific protease 1; experiment: Dose response confirmation of small molecule inhibitors of the catalytic domain of the SUMO protease, SENP1 in a FRET assay.; type: functional; conditions: read-out: IC50_Mean
[30] = target: Dual specificity tyrosine-phosphorylation-regulated kinase 1A (Rattus norvegicus, UniProt Q63470); type: biochemical, Homo sapiens
[31] = reduced cellular PGC1a acetyl-lysine signal – cell-based, cherry-picked samples, dose response (AID 720514); type: functional;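 also: potency may reflect raised or lowered acetylation signal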
[32] = Dd2 malaria parasite growth inhibition potency – SYBR Green, dry powder samples, dose response (AID 1159566); type: functional, cell-based;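 also: potency for growth inhibition with lower SYBR green DNA signal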
[33] = growth inhibition of PfATP4-mutant resistant parasites – NITD609-resistant line, SYBR Green, dry powder, dose response (AID 1159571); type: functional, cell-based;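 also: parasites synchronized at ring stage by sorbitol before testing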
[34] = growth inhibition of yeast DHODH-expressing 3D7 parasites – SYBR Green, dry powder samples, dose response (AID 1159570); type: functional, cell-based;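 also: parasite growth measured after 72 hours of compound exposure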
[35] = P. falciparum Dd2 growth inhibitors, dose response, SYBR Green, cherry-picked samples (AID 1159567); type: functional, cell-based
[36] = toxicity to human HepG2 hepatoma cells – cell-based, plate reader, dry powder samples, cytotoxicity control, dose response (AID 1159569); type: functional;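 also: inhibitor potency with signal falling toward the positive control level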

T3 sequence (Q79MP6 whole entry): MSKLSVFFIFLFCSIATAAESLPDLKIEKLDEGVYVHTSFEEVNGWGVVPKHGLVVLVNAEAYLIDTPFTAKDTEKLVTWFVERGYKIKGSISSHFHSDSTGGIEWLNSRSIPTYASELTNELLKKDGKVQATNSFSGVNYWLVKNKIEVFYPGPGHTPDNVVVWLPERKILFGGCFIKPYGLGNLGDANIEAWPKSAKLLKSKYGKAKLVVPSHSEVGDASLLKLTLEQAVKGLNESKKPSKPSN
Sequence of Disintegrin and metalloproteinase domain-containing protein 17 (P78536 whole entry, the tested form may be a part): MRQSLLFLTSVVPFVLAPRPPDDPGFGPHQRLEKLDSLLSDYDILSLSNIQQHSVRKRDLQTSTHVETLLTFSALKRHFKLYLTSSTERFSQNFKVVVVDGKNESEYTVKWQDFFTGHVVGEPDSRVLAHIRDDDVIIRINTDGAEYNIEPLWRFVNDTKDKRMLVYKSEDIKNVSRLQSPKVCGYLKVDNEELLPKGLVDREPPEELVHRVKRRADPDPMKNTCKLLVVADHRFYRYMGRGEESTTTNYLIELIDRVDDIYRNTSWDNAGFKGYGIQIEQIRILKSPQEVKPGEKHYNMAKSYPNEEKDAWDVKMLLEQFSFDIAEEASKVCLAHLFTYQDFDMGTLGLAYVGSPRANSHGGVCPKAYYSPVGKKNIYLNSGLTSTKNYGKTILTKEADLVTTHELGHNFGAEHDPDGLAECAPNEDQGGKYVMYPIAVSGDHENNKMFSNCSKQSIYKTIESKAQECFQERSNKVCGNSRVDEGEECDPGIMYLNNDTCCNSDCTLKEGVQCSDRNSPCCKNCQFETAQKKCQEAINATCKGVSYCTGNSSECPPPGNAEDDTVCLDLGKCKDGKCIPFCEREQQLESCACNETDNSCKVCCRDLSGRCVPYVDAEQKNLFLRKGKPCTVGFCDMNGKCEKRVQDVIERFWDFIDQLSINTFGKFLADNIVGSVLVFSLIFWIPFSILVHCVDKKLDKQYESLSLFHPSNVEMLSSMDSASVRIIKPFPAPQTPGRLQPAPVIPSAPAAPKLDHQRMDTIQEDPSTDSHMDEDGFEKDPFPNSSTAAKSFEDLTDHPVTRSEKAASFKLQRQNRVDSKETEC
Sequence of Beta-lactamase (Salmonella choleraesuis (strain SC-B67), UniProt Q5J463) (Q5J463 whole entry): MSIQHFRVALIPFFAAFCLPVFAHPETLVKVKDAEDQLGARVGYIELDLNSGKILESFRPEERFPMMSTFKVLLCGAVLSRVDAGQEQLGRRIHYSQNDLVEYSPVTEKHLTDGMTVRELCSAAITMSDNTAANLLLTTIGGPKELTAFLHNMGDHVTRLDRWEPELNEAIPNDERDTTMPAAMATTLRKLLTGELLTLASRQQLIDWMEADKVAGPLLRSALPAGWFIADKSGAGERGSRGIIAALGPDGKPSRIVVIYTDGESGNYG
Sequence of COUP transcription factor 2 (P24468 whole entry): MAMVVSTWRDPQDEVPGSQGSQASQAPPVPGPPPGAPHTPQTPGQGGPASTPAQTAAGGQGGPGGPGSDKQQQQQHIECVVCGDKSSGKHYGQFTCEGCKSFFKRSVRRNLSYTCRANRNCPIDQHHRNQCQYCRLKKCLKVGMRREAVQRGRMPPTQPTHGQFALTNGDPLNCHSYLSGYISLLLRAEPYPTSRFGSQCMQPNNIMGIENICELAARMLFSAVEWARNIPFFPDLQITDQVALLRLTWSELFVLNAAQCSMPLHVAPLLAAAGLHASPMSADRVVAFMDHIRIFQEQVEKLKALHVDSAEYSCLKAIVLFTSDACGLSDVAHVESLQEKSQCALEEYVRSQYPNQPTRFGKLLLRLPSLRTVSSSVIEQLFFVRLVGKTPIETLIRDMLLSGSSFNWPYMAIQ
Sequence of Galanin receptor type 3 (O60755 whole entry): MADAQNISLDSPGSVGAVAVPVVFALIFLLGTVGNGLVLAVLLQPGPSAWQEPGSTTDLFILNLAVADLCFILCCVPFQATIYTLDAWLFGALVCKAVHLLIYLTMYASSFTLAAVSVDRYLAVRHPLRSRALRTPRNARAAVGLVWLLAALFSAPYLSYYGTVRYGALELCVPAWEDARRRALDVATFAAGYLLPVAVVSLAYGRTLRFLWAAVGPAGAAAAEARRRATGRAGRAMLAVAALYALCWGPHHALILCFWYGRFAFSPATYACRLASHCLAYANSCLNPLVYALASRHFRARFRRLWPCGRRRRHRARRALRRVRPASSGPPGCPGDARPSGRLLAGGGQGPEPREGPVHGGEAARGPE
Sequence of Protein-tyrosine kinase 2-beta (Q14289 whole entry): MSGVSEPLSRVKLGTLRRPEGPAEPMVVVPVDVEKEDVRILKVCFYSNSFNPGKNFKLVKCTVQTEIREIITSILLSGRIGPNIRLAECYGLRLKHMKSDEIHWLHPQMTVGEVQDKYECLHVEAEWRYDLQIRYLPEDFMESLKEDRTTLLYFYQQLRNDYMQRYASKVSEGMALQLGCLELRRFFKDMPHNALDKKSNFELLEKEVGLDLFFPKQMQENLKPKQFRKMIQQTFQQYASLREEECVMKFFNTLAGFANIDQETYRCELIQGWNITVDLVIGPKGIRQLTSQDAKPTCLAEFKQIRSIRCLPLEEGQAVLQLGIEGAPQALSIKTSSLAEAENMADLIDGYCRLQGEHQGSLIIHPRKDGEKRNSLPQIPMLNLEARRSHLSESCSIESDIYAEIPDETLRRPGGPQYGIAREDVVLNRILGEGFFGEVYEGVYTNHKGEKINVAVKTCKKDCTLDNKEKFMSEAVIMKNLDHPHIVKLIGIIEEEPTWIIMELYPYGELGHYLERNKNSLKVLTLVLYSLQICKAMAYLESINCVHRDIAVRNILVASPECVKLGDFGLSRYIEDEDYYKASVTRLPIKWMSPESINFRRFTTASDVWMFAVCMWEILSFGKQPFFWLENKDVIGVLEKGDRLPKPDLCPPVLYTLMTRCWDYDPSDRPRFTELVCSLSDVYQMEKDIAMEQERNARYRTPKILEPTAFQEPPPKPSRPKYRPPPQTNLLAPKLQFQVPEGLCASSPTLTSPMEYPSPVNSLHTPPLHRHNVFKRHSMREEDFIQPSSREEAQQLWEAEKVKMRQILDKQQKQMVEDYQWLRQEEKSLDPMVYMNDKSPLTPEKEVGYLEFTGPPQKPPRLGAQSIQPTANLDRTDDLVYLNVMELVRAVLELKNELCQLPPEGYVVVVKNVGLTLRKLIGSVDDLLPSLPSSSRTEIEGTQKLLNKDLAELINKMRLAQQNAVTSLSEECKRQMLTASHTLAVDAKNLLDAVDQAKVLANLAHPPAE
Sequence of G-protein coupled receptor 35 (Q9HC97 whole entry): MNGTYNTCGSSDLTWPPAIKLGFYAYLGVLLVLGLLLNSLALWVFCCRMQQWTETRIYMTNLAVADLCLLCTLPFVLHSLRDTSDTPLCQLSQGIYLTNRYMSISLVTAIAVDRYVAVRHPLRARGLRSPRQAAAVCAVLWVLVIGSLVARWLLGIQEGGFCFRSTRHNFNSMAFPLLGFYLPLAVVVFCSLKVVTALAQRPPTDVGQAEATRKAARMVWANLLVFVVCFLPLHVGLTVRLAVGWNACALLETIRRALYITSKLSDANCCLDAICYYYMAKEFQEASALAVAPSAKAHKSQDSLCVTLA
Sequence of NAD-dependent protein deacylase sirtuin-5, mitochondrial (Q9NXA8 whole entry): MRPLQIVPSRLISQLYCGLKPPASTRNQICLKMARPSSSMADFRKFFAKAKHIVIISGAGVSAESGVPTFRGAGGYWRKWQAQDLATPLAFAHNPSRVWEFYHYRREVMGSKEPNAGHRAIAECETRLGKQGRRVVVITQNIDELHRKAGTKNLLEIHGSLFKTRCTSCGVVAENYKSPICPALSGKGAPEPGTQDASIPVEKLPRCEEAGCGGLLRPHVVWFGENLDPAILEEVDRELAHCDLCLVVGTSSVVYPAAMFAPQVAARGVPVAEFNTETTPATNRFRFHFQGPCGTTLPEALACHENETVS
Sequence of Cytochrome P450 2D6 (P10635 whole entry): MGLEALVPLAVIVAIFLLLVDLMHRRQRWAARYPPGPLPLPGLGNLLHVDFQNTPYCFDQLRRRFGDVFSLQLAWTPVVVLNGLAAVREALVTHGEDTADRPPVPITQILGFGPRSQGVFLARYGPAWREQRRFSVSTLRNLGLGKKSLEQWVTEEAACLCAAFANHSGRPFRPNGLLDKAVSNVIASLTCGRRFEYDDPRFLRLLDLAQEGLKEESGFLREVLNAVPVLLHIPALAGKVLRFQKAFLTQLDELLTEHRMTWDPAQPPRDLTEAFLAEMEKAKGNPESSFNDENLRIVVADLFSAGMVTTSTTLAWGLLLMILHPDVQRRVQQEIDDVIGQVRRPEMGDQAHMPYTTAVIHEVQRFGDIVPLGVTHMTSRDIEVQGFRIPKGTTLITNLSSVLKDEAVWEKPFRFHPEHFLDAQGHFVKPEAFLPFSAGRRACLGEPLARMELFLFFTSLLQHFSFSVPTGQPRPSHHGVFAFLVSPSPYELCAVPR

CC1=CC(=Cc2sc3ccccc3[n+]2C)C=C(C)N1CC1CCCO1 (stereo unspecified)
IC50 [1]: > 80 µM (inactive)
AC50 [2]: 1.82 µM (active)
IC50 [3]: 1.44 µM (active)
IC50 [4]: 4.97 µM (active)
AC50 [5]: 24.4 µM (active)

COc1ccc(C2CC(O)(c3ccccc3)Oc3c(C)ccc(C)c32)cc1 (stereo unspecified)
IC50 [6]: 12.7 µM (inactive)
EC50 [7]: > 150 µM (not active)
IC50 [8]: > 69.5 µM (inactive)
EC50 [9]: > 150 µM (not active)
CC50 [10]: 28.5 µM (active)
EC50 [11]: > 150 µM (not active)

CC(Oc1ccc(Cl)cc1)c1ccnn1S(=O)(=O)c1ccccc1 (stereo unspecified)
EC50 [12]: > 120 µM (not active)
IC50 [6]: 66.4 µM (inactive)
AC50 [13]: 14.1 µM (inconclusive)
EC50 [14]: 17.4 µM (active)
IC50 [8]: > 69.5 µM (inactive)
EC50 [15]: > 120 µM (not active)

COc1ccccc1-c1n[nH]c(=S)n1Cc1ccco1
IC50 [16]: > 59.6 µM (inactive)
IC50 [17]: > 59.6 µM (inactive)
IC50 [18]: > 59.6 µM (inactive)

C=CCSc1nnc(NC(=O)c2cn(CC)c3nc(C)ccc3c2=O)s1
AC50 [19]: > 30 µM (inactive)

COc1cccc2[nH]c3c(N4CCC(C)CC4)ncnc3c12
EC50 [20]: > 29.9 µM (inactive)
IC50 [21]: 0.379 µM (active)

O=P(O)(O)c1ccccc1OCCCCCOc1ccccc1P(=O)(O)O
IC50 [16]: > 59.6 µM (inactive)
IC50 [17]: > 59.6 µM (inactive)
IC50 [18]: > 59.6 µM (inactive)
IC50 [22]: 2.23 µM (active)

COc1ccccc1N=C(S)NNC(=O)c1nn(C)cc1Cl
IC50 [23]: > 122 µM (inactive)

O=c1cc(Nc2ccc3c(c2)OCO3)[nH]c(=O)n1-c1ccc(Br)cc1
EC50 [24]: 5.11 µM (active)
IC50 [25]: > 29.9 µM (inactive)
EC50 [26]: > 29.9 µM (inactive)
IC50 [27]: 21.9 µM (inactive)

CC(C)Cc1c(C#N)c(S)nc2c1CCCC2
IC50 [23]: > 122 µM (inactive)

O=C(O)/C=C/C(=O)NCCc1ccccc1
EC50 [24]: 0.153 µM (active)
IC50 [25]: > 29.9 µM (inactive)
EC50 [26]: > 29.9 µM (inactive)
IC50 [27]: 1.19 µM (active)

CC1Cc2cc(-c3csc(NC(=O)Cc4ccccc4)n3)ccc2N1S(C)(=O)=O (stereo unspecified)
IC50 [4]: 6.11 µM (active)

CCC(=NN=C(CC)c1ccccc1O)c1ccccc1O
IC50 [28]: 8.19 µM (active)
IC50 [29]: 10.4 µM (active)

O=C1NC(=S)SC1=Cc1cc(Br)ccc1O
IC50 [28]: 14.7 µM (active)
IC50 [29]: 2.57 µM (active)
AC50 [30]: 8.94 µM (active)

CCCCC[C@@H](/C=C/C1C(=O)C=C[C@H]1C/C=C\CCCC(=O)O)OC(C)=O (stereo partly specified)
EC50 [20]: > 29.9 µM (inactive)
IC50 [21]: 1.09 µM (active)

CO[C@@H]1CN(C)C(=O)c2cc(NC(C)=O)ccc2OC[C@@H](C)N(Cc2ccccc2C(=O)O)C[C@@H]1C
AC50 [31]: 23.6 µM (active)

COc1cccc(CN(C)C[C@H]2OCc3ccccc3-c3c(n(C)c4ccccc34)C(=O)N([C@H](C)CO)C[C@@H]2C)c1
AC50 [32]: 2.87 µM (active)
AC50 [33]: 3.55 µM (active)
AC50 [34]: 3.29 µM (active)
AC50 [35]: 2.76 µM (active)
AC50 [36]: 20.6 µM (active)
